This passage reports Ki results from patent publication US12723063B2, “GIPR-agonist compounds” (Eli Lilly and Company, priority 2019, dated 2026).

The term Ki denotes a measure of affinity in units of concentration, obtained from inhibition or displacement.

*1 amine or outer side, *2 acyl side, *3 side chain or, on linkers, in order; H or OH if unused. Where a SMILES comes first, the peptide text is derived from it. Side-chain parts run from the residue outwards. [ ]: non-standard residue; d: D form. The star is where a group is joined. C20 diacid = O=C(O)CCCCCCCCCCCCCCCCCCC(=O)*; αMePhe(2-F) = C[C@](N)(Cc1ccccc1F)C(=O)O; γGlu = O=C(O)[C@H](CCC(=O)[*:2])N[*:1]; αMeF = C[C@](N)(Cc1ccccc1)C(=O)O; 4Pal = N[C@@H](Cc1ccncc1)C(=O)O; αMeL = CC(C)C[C@](C)(N)C(=O)O; AEEA = NCCOCCOCC(=O)O; Aib = CC(C)(N)C(=O)O

T1 sequence (P43220 24-463): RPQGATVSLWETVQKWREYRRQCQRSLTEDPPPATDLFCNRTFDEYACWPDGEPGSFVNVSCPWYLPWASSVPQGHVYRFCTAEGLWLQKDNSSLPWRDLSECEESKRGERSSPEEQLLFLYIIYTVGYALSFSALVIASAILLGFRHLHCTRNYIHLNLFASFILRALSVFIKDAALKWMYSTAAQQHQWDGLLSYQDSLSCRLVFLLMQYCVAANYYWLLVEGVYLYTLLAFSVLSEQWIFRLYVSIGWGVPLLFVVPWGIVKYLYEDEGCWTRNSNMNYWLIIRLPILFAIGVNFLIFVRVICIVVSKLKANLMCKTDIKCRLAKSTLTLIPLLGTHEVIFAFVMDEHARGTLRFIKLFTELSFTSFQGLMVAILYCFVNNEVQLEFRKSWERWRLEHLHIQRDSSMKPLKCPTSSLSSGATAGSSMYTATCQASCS

The assay concerns the target T1, human GLP-1R (Homo sapiens, UniProt P43220).
T1 construct: expressed in transfected cells; crude membranes
In words: [125I]-GLP-1 binding, SPA with WGA beads, 0.1% bacitracin. The settings on record: geometric mean, read-out: hGLP1R Ki. The essentials: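 Binding buffer was 25 mM HEPES pH 7.4 with 2.5 mM CaCl2, 1 mM MgCl2, 0.1% (w/v) bacitracin, 0.003% Tween-20 and EDTA-free protease inhibitors. Four-parameter regression gave IC50, converted to Ki (geometric mean, SEM, n independent days).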
With `CC[C@H](C)[C@H](NC(=O)[C@H](Cc1ccccc1)NC(=O)[C@@H](NC(=O)CNC(=O)[C@H](CCC(=O)O)NC(=O)C(C)(C)NC(=O)[C@@H](N)Cc1ccc(O)cc1)[C@@H](C)O)C(=O)N[C@@H](CO)C(=O)N[C@@H](CC(=O)O)C(=O)N[C@@H](Cc1ccc(O)cc1)C(=O)N[C@@H](CO)C(=O)N[C@H](C(=O)N[C@@](C)(CC(C)C)C(=O)N[C@@H](CC(C)C)C(=O)N[C@@H](CC(=O)O)C(=O)N[C@@H](CCCCN)C(=O)N[C@@H](CCCCNC(=O)COCCOCCNC(=O)COCCOCCNC(=O)CC[C@H](NC(=O)CCCCCCCCCCCCCCCCCCC(=O)O)C(=O)O)C(=O)N[C@@H](Cc1c[nH]cn1)C(=O)N[C@@H](CCC(N)=O)C(=O)NC(C)(C)C(=O)N[C@@H](CC(=O)O)C(=O)N[C@@](C)(Cc1ccccc1)C(=O)N[C@H](C(=O)N[C@@H](CCC(=O)O)C(=O)N[C@@H](Cc1ccncc1)C(=O)N[C@@H](CC(C)C)C(=O)N[C@@H](CC(C)C)C(=O)N[C@@H](C)C(=O)NCC(=O)NCC(=O)N1CCC[C@H]1C(=O)N[C@@H](CO)C(=O)N[C@@H](CO)C(=O)NCC(=O)N[C@@H](C)C(=O)N1CCC[C@H]1C(=O)N1CCC[C@H]1C(=O)N1CCC[C@H]1C(=O)N[C@@H](CO)C(N)=O)C(C)C)[C@@H](C)CC` [Example 56], the inhibition constant Ki was 530 nM.

Consider `CC[C@H](C)[C@H](NC(=O)[C@H](CO)NC(=O)[C@H](Cc1ccc(O)cc1)NC(=O)[C@H](CC(=O)O)NC(=O)[C@H](CO)NC(=O)[C@@H](NC(=O)[C@](C)(Cc1ccccc1F)NC(=O)[C@@H](NC(=O)CNC(=O)[C@H](CCC(=O)O)NC(=O)C(C)(C)NC(=O)[C@@H](N)Cc1ccc(O)cc1)[C@@H](C)O)[C@@H](C)CC)C(=O)N[C@@H](C)C(=O)N[C@@H](CC(C)C)C(=O)N[C@@H](CC(=O)O)C(=O)N[C@@H](CCCCN)C(=O)N[C@@H](CCCCNC(=O)COCCOCCNC(=O)COCCOCCNC(=O)CC[C@H](NC(=O)CCCCCCCCCCCCCCCCCCC(=O)O)C(=O)O)C(=O)N[C@@H](Cc1c[nH]cn1)C(=O)N[C@@H](CCC(N)=O)C(=O)NC(C)(C)C(=O)N[C@@H](CC(=O)O)C(=O)N[C@@H](Cc1ccccc1)C(=O)N[C@H](C(=O)N[C@@H](CCC(=O)O)C(=O)N[C@@H](Cc1ccncc1)C(=O)N[C@@H](CC(C)C)C(=O)N[C@@H](CC(C)C)C(=O)N[C@@H](CCC(=O)O)C(=O)NCC(=O)NCC(=O)N1CCC[C@H]1C(=O)N[C@@H](CO)C(=O)N[C@@H](CO)C(=O)NCC(=O)N[C@@H](C)C(=O)N1CCC[C@H]1C(=O)N1CCC[C@H]1C(=O)N1CCC[C@H]1C(=O)N[C@@H](CO)C(N)=O)C(C)C` [Example 39] (H-Y[Aib]EGT[αMePhe(2-F)]ISDYSIALDKK([AEEA-AEEA-γGlu-C20 diacid])HQ[Aib]DFVE[4Pal]LLEGGPSSGAPPPS-NH2), for which the Ki is 235 nM.

With `CC[C@H](C)[C@H](NC(=O)[C@H](CO)NC(=O)[C@H](Cc1ccc(O)cc1)NC(=O)[C@H](CC(=O)O)NC(=O)[C@H](CO)NC(=O)[C@@H](NC(=O)[C@](C)(Cc1ccccc1)NC(=O)[C@@H](NC(=O)CNC(=O)[C@H](CCC(=O)O)NC(=O)C(C)(C)NC(=O)[C@@H](N)Cc1ccc(O)cc1)[C@@H](C)O)[C@@H](C)CC)C(=O)N[C@@](C)(CC(C)C)C(=O)N[C@@H](CC(C)C)C(=O)N[C@@H](CC(=O)O)C(=O)N[C@@H](CCCCN)C(=O)N[C@@H](CCCCNC(=O)COCCOCCNC(=O)COCCOCCNC(=O)CC[C@H](NC(=O)CCCCCCCCCCCCCCCCCCC(=O)O)C(=O)O)C(=O)N[C@@H](Cc1c[nH]cn1)C(=O)N[C@@H](CCC(N)=O)C(=O)NC(C)(C)C(=O)N[C@@H](CCC(=O)O)C(=O)N[C@@H](Cc1ccccc1)C(=O)N[C@H](C(=O)N[C@@H](CCC(=O)O)C(=O)N[C@@H](Cc1ccncc1)C(=O)N[C@@H](CC(C)C)C(=O)N[C@@H](CC(C)C)C(=O)N[C@@H](C)C(=O)N[C@@H](C)C(=O)NCC(=O)N1CCC[C@H]1C(=O)N[C@@H](CO)C(=O)N[C@@H](CO)C(=O)NCC(=O)N[C@@H](C)C(=O)N1CCC[C@H]1C(=O)N1CCC[C@H]1C(=O)N1CCC[C@H]1C(=O)N[C@@H](CO)C(N)=O)C(C)C` [Example 62] (H-Y[Aib]EGT[αMeF]ISDYSI[αMeL]LDKK([AEEA-AEEA-γGlu-C20 diacid])HQ[Aib]EFVE[4Pal]LLAAGPSSGAPPPS-NH2), the Ki came to 47.6 nM.

With `CC[C@H](C)[C@H](NC(=O)[C@H](Cc1ccccc1)NC(=O)[C@@H](NC(=O)CNC(=O)[C@H](CCC(=O)O)NC(=O)C(C)(C)NC(=O)[C@@H](N)Cc1ccc(O)cc1)[C@@H](C)O)C(=O)N[C@@H](CO)C(=O)N[C@@H](CC(=O)O)C(=O)N[C@@H](Cc1ccc(O)cc1)C(=O)N[C@@H](CO)C(=O)N[C@H](C(=O)N[C@@](C)(CC(C)C)C(=O)N[C@@H](CC(C)C)C(=O)N[C@@H](CC(=O)O)C(=O)N[C@@H](CCCCN)C(=O)N[C@@H](CCCCNC(=O)COCCOCCNC(=O)COCCOCCNC(=O)CC[C@H](NC(=O)CCCCCCCCCCCCCCCCCCC(=O)O)C(=O)O)C(=O)N[C@@H](Cc1c[nH]cn1)C(=O)N[C@@H](CCC(N)=O)C(=O)NC(C)(C)C(=O)N[C@@H](CCC(=O)O)C(=O)N[C@@H](Cc1ccccc1)C(=O)N[C@H](C(=O)N[C@@H](CCC(=O)O)C(=O)N[C@@H](Cc1ccncc1)C(=O)N[C@@H](CC(C)C)C(=O)N[C@@H](CC(C)C)C(=O)N[C@@H](C)C(=O)N[C@H](C(=O)NCC(=O)N1CCC[C@H]1C(=O)N[C@@H](CO)C(=O)N[C@@H](CO)C(=O)NCC(=O)N[C@@H](C)C(=O)N1CCC[C@H]1C(=O)N1CCC[C@H]1C(=O)N1CCC[C@H]1C(=O)N[C@@H](CO)C(N)=O)[C@@H](C)O)C(C)C)[C@@H](C)CC` [Example 58] (H-Y[Aib]EGTFISDYSI[αMeL]LDKK([AEEA-AEEA-γGlu-C20 diacid])HQ[Aib]EFVE[4Pal]LLATGPSSGAPPPS-NH2), the Ki was 459 nM.

With `CC[C@H](C)[C@H](NC(=O)[C@H](Cc1ccccc1)NC(=O)[C@@H](NC(=O)CNC(=O)[C@H](CCC(=O)O)NC(=O)C(C)(C)NC(=O)[C@@H](N)Cc1ccc(O)cc1)[C@@H](C)O)C(=O)N[C@@H](CO)C(=O)N[C@@H](CC(=O)O)C(=O)N[C@@H](Cc1ccc(O)cc1)C(=O)N[C@@H](CO)C(=O)N[C@H](C(=O)N[C@@](C)(CC(C)C)C(=O)N[C@@H](CC(C)C)C(=O)N[C@@H](CC(=O)O)C(=O)N[C@@H](CCCCN)C(=O)N[C@@H](CCCCNC(=O)COCCOCCNC(=O)COCCOCCNC(=O)CC[C@H](NC(=O)CCCCCCCCCCCCCCCCCCC(=O)O)C(=O)O)C(=O)N[C@@H](Cc1c[nH]cn1)C(=O)N[C@@H](CCC(N)=O)C(=O)NC(C)(C)C(=O)N[C@@H](CC(=O)O)C(=O)N[C@@H](Cc1ccccc1)C(=O)N[C@H](C(=O)N[C@@H](CCC(=O)O)C(=O)N[C@@H](Cc1ccc(O)cc1)C(=O)N[C@@H](CC(C)C)C(=O)N[C@@H](CC(C)C)C(=O)N[C@@H](CCC(=O)O)C(=O)N[C@H](C(=O)NCC(=O)N1CCC[C@H]1C(=O)N[C@@H](CO)C(=O)N[C@@H](CO)C(=O)NCC(=O)N[C@@H](C)C(=O)N1CCC[C@H]1C(=O)N1CCC[C@H]1C(=O)N1CCC[C@H]1C(=O)N[C@@H](CO)C(N)=O)[C@@H](C)O)C(C)C)[C@@H](C)CC` [Example 66] (H-Y[Aib]EGTFISDYSI[αMeL]LDKK([AEEA-AEEA-γGlu-C20 diacid])HQ[Aib]DFVEYLLETGPSSGAPPPS-NH2), the Ki is 326 nM.

In the case of `CC[C@H](C)[C@H](NC(=O)[C@H](CO)NC(=O)[C@H](Cc1ccc(O)cc1)NC(=O)[C@H](CC(=O)O)NC(=O)[C@H](CO)NC(=O)[C@@H](NC(=O)[C@](C)(Cc1ccccc1F)NC(=O)[C@@H](NC(=O)CNC(=O)[C@H](CCC(=O)O)NC(=O)C(C)(C)NC(=O)[C@@H](N)Cc1ccc(O)cc1)[C@@H](C)O)[C@@H](C)CC)C(=O)N[C@@H](C)C(=O)N[C@@H](CC(C)C)C(=O)N[C@@H](CC(=O)O)C(=O)N[C@@H](CCCCN)C(=O)N[C@@H](CCCCNC(=O)COCCOCCNC(=O)COCCOCCNC(=O)CC[C@H](NC(=O)CCCCCCCCCCCCCCCCCCC(=O)O)C(=O)O)C(=O)N[C@@H](Cc1c[nH]cn1)C(=O)N[C@@H](CCC(N)=O)C(=O)NC(C)(C)C(=O)N[C@@H](CC(=O)O)C(=O)N[C@@H](Cc1ccccc1)C(=O)N[C@H](C(=O)N[C@@H](CCC(=O)O)C(=O)N[C@@H](Cc1ccncc1)C(=O)N[C@@H](CC(C)C)C(=O)N[C@@H](CC(C)C)C(=O)N[C@@H](CCC(=O)O)C(=O)N[C@H](C(=O)NCC(=O)N1CCC[C@H]1C(=O)N[C@@H](CO)C(=O)N[C@@H](CO)C(=O)NCC(=O)N[C@@H](C)C(=O)N1CCC[C@H]1C(=O)N1CCC[C@H]1C(=O)N1CCC[C@H]1C(=O)N[C@@H](CO)C(N)=O)[C@@H](C)O)C(C)C` [Example 38] (H-Y[Aib]EGT[αMePhe(2-F)]ISDYSIALDKK([AEEA-AEEA-γGlu-C20 diacid])HQ[Aib]DFVE[4Pal]LLETGPSSGAPPPS-NH2), the Ki came to 776 nM.

In the case of `CC[C@H](C)[C@H](NC(=O)[C@H](Cc1ccccc1)NC(=O)[C@@H](NC(=O)CNC(=O)[C@H](CCC(=O)O)NC(=O)C(C)(C)NC(=O)[C@@H](N)Cc1ccc(O)cc1)[C@@H](C)O)C(=O)N[C@@H](CO)C(=O)N[C@@H](CC(=O)O)C(=O)N[C@@H](Cc1ccc(O)cc1)C(=O)N[C@@H](CO)C(=O)N[C@H](C(=O)N[C@@](C)(CC(C)C)C(=O)N[C@@H](CC(C)C)C(=O)N[C@@H](CC(=O)O)C(=O)N[C@@H](CCCCN)C(=O)N[C@@H](CCCCNC(=O)COCCOCCNC(=O)COCCOCCNC(=O)CC[C@H](NC(=O)CCCCCCCCCCCCCCCCCCC(=O)O)C(=O)O)C(=O)N[C@@H](Cc1c[nH]cn1)C(=O)N[C@@H](CCC(N)=O)C(=O)NC(C)(C)C(=O)N[C@@H](CCC(=O)O)C(=O)N[C@@H](Cc1ccccc1)C(=O)N[C@H](C(=O)N[C@@H](CCC(=O)O)C(=O)N[C@@H](Cc1ccc(O)cc1)C(=O)N[C@@H](CC(C)C)C(=O)N[C@@H](CC(C)C)C(=O)N[C@@H](CCC(=O)O)C(=O)N[C@H](C(=O)NCC(=O)N1CCC[C@H]1C(=O)N[C@@H](CO)C(=O)N[C@@H](CO)C(=O)NCC(=O)N[C@@H](C)C(=O)N1CCC[C@H]1C(=O)N1CCC[C@H]1C(=O)N1CCC[C@H]1C(=O)N[C@@H](CO)C(N)=O)[C@@H](C)O)C(C)C)[C@@H](C)CC` [Example 64] (H-Y[Aib]EGTFISDYSI[αMeL]LDKK([AEEA-AEEA-γGlu-C20 diacid])HQ[Aib]EFVEYLLETGPSSGAPPPS-NH2), the Ki is 477 nM.
